Read-outs that look alike come from different tables or passages of the source.
Assays:
Test in all cases: Kinase panel profiling at 1 µmol/L (MSA or IMAP), percentage inhibition
Type in all cases: biochemical
[1] = molecular target: T1, panel of 255 wild-type kinases (Homo sapiens, UniProt P51813); settings: read-out: %-inhibition BMX
T1 sequence (P51813 1-675): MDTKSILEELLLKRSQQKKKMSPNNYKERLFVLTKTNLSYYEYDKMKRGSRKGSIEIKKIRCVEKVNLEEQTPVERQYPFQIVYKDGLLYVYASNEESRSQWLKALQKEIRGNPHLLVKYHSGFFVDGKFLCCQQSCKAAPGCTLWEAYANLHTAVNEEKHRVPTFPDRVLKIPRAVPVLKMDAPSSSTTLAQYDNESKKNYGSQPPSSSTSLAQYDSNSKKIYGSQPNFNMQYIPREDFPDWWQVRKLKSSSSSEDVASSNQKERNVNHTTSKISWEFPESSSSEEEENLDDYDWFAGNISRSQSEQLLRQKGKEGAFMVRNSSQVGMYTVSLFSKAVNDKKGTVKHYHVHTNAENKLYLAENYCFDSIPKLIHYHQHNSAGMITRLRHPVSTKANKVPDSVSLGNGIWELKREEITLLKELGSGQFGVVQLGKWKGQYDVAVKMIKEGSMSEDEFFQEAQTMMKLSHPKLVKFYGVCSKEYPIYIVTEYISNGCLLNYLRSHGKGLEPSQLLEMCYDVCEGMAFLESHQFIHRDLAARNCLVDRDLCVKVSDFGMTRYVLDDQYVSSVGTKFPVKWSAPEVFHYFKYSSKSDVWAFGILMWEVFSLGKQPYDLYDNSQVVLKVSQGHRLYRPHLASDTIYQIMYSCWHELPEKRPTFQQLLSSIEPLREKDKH

[2] = molecular target: T2, panel of 255 wild-type kinases (Homo sapiens, UniProt Q96PY6); settings: read-out: %-inhibition, NEK1
T2 sequence (Q96PY6 1-1258): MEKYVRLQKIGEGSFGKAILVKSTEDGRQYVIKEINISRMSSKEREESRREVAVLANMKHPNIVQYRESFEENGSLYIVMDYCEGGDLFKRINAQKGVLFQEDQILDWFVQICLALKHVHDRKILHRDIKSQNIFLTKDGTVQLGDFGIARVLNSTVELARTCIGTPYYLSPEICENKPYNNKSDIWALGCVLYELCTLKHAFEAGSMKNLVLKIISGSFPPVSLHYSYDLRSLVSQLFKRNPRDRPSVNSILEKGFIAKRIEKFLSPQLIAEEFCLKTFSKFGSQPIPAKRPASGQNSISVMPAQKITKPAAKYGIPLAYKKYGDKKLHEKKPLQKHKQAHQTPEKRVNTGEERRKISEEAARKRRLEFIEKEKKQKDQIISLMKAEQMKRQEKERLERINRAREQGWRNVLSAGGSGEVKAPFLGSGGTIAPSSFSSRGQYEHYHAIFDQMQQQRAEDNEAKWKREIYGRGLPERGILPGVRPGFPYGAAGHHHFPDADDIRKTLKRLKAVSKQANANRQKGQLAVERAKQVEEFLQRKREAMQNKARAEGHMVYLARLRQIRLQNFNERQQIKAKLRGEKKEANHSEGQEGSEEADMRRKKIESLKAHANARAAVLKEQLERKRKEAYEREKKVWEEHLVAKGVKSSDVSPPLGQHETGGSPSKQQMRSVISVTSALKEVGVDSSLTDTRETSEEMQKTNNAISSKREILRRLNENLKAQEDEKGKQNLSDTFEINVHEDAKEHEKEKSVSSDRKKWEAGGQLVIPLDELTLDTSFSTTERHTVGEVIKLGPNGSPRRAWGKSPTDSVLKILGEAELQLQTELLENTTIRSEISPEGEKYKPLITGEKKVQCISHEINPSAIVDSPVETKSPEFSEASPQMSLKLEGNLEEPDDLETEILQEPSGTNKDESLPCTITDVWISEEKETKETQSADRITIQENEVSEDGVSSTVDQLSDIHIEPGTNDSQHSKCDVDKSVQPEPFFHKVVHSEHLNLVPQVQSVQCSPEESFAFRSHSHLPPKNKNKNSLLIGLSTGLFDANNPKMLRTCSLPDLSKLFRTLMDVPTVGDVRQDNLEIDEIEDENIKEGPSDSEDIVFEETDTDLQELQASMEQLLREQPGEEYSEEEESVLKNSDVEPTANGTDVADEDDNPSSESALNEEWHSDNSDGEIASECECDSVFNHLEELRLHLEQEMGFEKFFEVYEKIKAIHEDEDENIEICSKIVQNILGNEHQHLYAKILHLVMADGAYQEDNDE

[3] = molecular target: panel of 255 wild-type kinases (Homo sapiens, UniProt P11309); settings: read-out: %-inhibition at 1 µmol/L, PIM1
[4] = molecular target: panel of 255 wild-type kinases (Homo sapiens, UniProt Q9H4B4); settings: read-out: %-inhibition at 1 µmol/L, PLK3
[5] = BMX kinase assay, 1 µmol/L single concentration
[6] = NEK1, 1 µmol/L single concentration
[7] = kinase PIM1, 1 µmol/L single concentration
[8] = kinase PLK3, 1 µmol/L single concentration

Row | Structure (SMILES) | inhibition at 1 µM [1, 5] [%] | inhibition at 1 µM [2, 6] [%] | inhibition at 1 µM [3, 7] [%] | inhibition at 1 µM [4, 8] [%] | inhibition at 1 µM [1] [%] | inhibition at 1 µM [2] [%] | inhibition at 1 µM [3] [%] | inhibition at 1 µM [4] [%]
1 | COC(=O)N[C@@H](C)CNc1nccc(-c2cn(C(C)C)nc2-c2cc(Cl)cc(NS(C)(=O)=O)c2F)n1 [encorafenib] | 8 | 2.84 | 10 | 0.929 |  |  |  | 
2 | C[C@H](Nc1ncnc2nc[nH]c12)c1cc2cccc(Cl)c2c(=O)n1-c1ccccc1 [duvelisib] | 1.46 | -3.74 | -0.908 | 4.56 |  |  |  | 
3 | CCN1CCN(c2ccc(Nc3cc(N(C)C(=O)Nc4c(Cl)c(OC)cc(OC)c4Cl)ncn3)cc2)CC1 [infigratinib] | 0.836 | -5 | -2.33 | -0.24 |  |  |  | 
4 | CNC(=O)c1ccc(-c2cnc3ncc(Cc4ccc5ncccc5c4)n3n2)cc1F [capmatinib] |  |  |  |  | 4.33 | -8 | -9 | 0.709
5 | FC(F)(F)c1ccc(CNc2ccc(Cc3c[nH]c4ncc(Cl)cc34)cn2)cn1 [pexidartinib] | -0.565 | -1.38 | -3.77 | 12 |  |  |  | 
6 | O=C(Nc1cnn2ccc(N3CCC[C@@H]3c3cc(F)ccc3F)nc12)N1CC[C@H](O)C1 [larotrectinib] | 21 | -2.72 | -5.32 | -0.714 |  |  |  | 
7 | CCc1nc(C(N)=O)c(Nc2ccc(N3CCC(N4CCN(C)CC4)CC3)c(OC)c2)nc1NC1CCOCC1 [gilteritinib] | 60 | 5.59 | 6 | 2.59 |  |  |  | 
8 | CCn1c(=O)c(-c2cc(NC(=O)Nc3ccccc3)c(F)cc2Br)cc2cnc(NC)cc21 [ripretinib] | 60 | -1.3 | -5 | 4 |  |  |  | 
9 | CN1CCN(c2ccc(C(=O)Nc3n[nH]c4ccc(Cc5cc(F)cc(F)c5)cc34)c(NC3CCOCC3)c2)CC1 [entrectinib] | 99 | -3.78 | -6 | 4.71 |  |  |  | 
10 | Cn1cnc2c(F)c(Nc3ccc(Br)cc3F)c(C(=O)NOCCO)cc21 [binimetinib] | 4 | -1.21 | -16 | -0.0416 |  |  |  | 
11 | COc1ccc(CN2C3CC2CN(c2ccc(-c4cc(OCC(C)(C)O)cn5ncc(C#N)c45)cn2)C3)cn1 [selpercatinib] | 12 | -0.568 | -5.68 | -1.64 |  |  |  | 
12 | Cc1nc(NC(=O)N2CCC[C@H]2C(N)=O)sc1-c1ccnc(C(C)(C)C(F)(F)F)c1 [alpelisib] | 0.476 | -0.542 | 4 | 1.89 |  |  |  | 
13 | Cc1cc(Nc2ncnc3ccc(NC4=NC(C)(C)CO4)cc23)ccc1Oc1ccn2ncnc2c1 [tucatinib] | 6.62 | 1.77 | -3.59 | 1.59 |  |  |  | 
14 | Cn1cnc2c(F)c(Nc3ccc(Br)cc3Cl)c(C(=O)NOCCO)cc21 [selumetinib] | 2.24 | -5 | -6 | 0.774 |  |  |  | 
15 | COc1cc2ncnc(Nc3ccc(F)c(Cl)c3)c2cc1NC(=O)/C=C/CN1CCCCC1 [dacomitinib] | 12 | 0.762 | 32 | 3.6 |  |  |  | 
16 | C[C@H]1Oc2cc(cnc2N)-c2c(nn(C)c2C#N)CN(C)C(=O)c2ccc(F)cc21 [lorlatinib] | 4 | 0.741 | 8 | 2.15 |  |  |  | 
17 | CCN1C(=O)N(c2c(F)c(OC)cc(OC)c2F)Cc2cnc3[nH]c(CN4CCOCC4)cc3c21 [pemigatinib] | 1.44 | 10 | -7 | -1.19 |  |  |  | 
18 | CO[C@]1(C(=O)N[C@@H](C)c2ccc(-n3cc(F)cn3)nc2)CC[C@H](c2nc(C)cc(Nc3cc(C)[nH]n3)n2)CC1 [pralsetinib] | 82 | -5 | -1.53 | -0.12 |  |  |  | 
19 | C=CC(=O)N1CCC([C@@H]2CCNc3c(C(N)=O)c(-c4ccc(Oc5ccccc5)cc4)nn32)CC1 [zanubrutinib] |  | -4 | -11 | -4.39 |  |  |  | 
20 | Cn1cc(-c2cc3c(N4CCN(c5ncc([C@@](C)(N)c6ccc(F)cc6)cn5)CC4)ncnn3c2)cn1 [avapritinib] | 21 | 56 | 24 | 5.69 |  |  |  | 
